Laboratory results from US7589080B2, “β-cyclodextrin compositions, and use to prevent transmission of sexually transmitted diseases” (priority 2000, dated 2009).

Experiments:
Type in all cases: cell-based
[1] = system: CXCR4; experiment: Flow cytometry of CXCR4 surface expression
Procedure: Flow cytometry was performed as previously described (Orentas and Hildreth, supra, 1993). Briefly, 2×10^5 2-OH-βCD treated or untreated cells in 100 μl PBS containing 5% normal goat serum (NGS) were added to 100 μl of MAb (1-5 μg) and incubated 30 min on ice. In comparative experiments we prefixed the cells with 2% paraformaldehyde in PBS immediately after 2-OH-βCD treatment. Cells were washed with PBS, resuspended in 100 μl of PBS, 5% NGS containing 2 Tg of FITC conjugated-goat anti-mouse IgG (FITC-GAM) and incubated 1 h on ice. Cells were then washed with PBS and fixed with 2% paraformaldehyde followed by analysis on an EPICS Profile II flow cytometer.
Cholesterol depletion also promoted CXCR4 down-modulation by MAb-induced internalization. A possible explanation for the inhibition of syncytium formation by cholesterol depletion as described above is that CD4, CRs, or both are lost from the cell surface, for example, by extrusion from the membrane in vesicles after loss of cholesterol, or they could be internalized. To explore these possibilities, βCD treated cells were examined for expression of HIV receptors by flow cytometry. […] In contrast, cell surface expression of CXCR4 was reduced by 50% or more in all of the cells after 2-OH-βCD treatment (Table 1).
In order to determine whether the loss of CXCR4 expression was due to MAb-induced internalization, cells were fixed with 2% paraformaldehyde in PBS immediately after 2-OH-βCD treatment and before staining with MAbs for flow cytometry.

[2] = system: LFA-1 binding to ICAM-1 triggered through CXCR4; experiment: SDF-1α-induced cell adhesion assay; conditions: Jurkat cells treated with 20 mM
Procedure: Cell adhesion assays were carried out essentially as previously described (Liao et al., supra, 2000). The wells of 96 well plates were coated with recombinant ICAM-Ig and blocked as described. Jurkat cells were labeled with horseradish peroxidase (HRP) and treated with either 20 mM 2-OH-βCD or medium alone as described above. The cells were then washed and resuspended in cRPMI at a density of 2×10^6/ml. One hundred Tl of cells were added to the wells along with cRPMI alone or medium containing 10 ng/ml of SDF-1α. The wells were incubated at 37° C. for various times before washing to remove unbound cells. Bound cells were lysed and HRP measured as described previously. A standard curve was generated by from known numbers of labeled cells lysed and quantitated by measuring HRP.
Loss of CXCR function in regulating LFA-1 could also explain the lower binding of HIV-1 to βCD-treated cells observed previously (Liao et al., supra, 2000; Orentas and Hildreth, supra, 1993). […] The ability of βCD treatment of cells to affect control of LFA-1 function by CXCR4 also was examined. Jurkat cells were treated with 2-OH-βCD or medium alone, then were added to the wells of culture plates coated with soluble recombinant ICAM-Ig. SDF-1, a CXCR4-specific chemokine that triggers LFA-1 function, was added to trigger binding of LFA-1 to ICAM-1. […]

[3] = system: HIV-1 primary strain 97.099, M-tropic (R5); experiment: Primary virus infection assay, isolate 97.099; conditions: PHA blasts treated with 10 mM; p24 after 6 days
Procedure: Peripheral blood mononuclear cells (PBMCS) were isolated by Ficoll-Hypaque centrifugation from buffy coats obtained from the Johns Hopkins Hemapheresis Center. Cells were stimulated for 3 days with 3 Tg/ml PHA, washed with iRPMI, and treated with 10 mM 2-OH-βCD in cRPMI for 1 hr. Cells were then washed twice with iRPMI and resuspended in cRPMI (1×10^6/ml) supplemented with 50 U/ml IL-2 and containing primary HIV-1 strains at 20 ng/ml p24. Cells were incubated with virus for 24 hr at 37° C. before washing twice with iRPMI. Cells were then resuspended in cRPMI supplemented with 50 U/ml IL-2 and cultured for 6 days at 37° C. Supernatants were collected and p24 was quantitated by standard p24 ELISA.
βCD treatment blocks HIV-1 virus infection. HIV-1 can spread in cell cultures without necessarily exerting cytopathic effects. […] To test the effects of cholesterol depletion on HIV-1 infection of primary T cells by free virus, PHA blasts were treated with 10 mM 2-OH-βCD or medium alone, then were exposed to HIV-1 for 2 hr before washing to remove input virus. Viability and growth of the PHA blasts was not affected by treatment with the βCD under the conditions used. P24 release was measured after an addition 6 days in culture. Two primary strains of HIV-1, 97.099 and 97.534, M-tropic (R5) and dual-tropic (X4R5), respectively, were tested.

## 2-hydroxypropyl-β-cyclodextrin [2-OH-βCD]
[1]; H9, 20 mM, fixed with 2% paraformaldehyde immediately after treatment
  CXCR4 (MCF): 55 MCF
[1]; H9 cells, 20 mM, not fixed before staining
  CXCR4 (MCF): 6.7 MCF
[1]; MT2 cells, 20 mM, not fixed before staining
  CXCR4 (MCF): 16.7 MCF
[1]; PM1, 20 mM, fixed with 2% paraformaldehyde immediately after treatment
  CXCR4 (MCF): 64 MCF
[1]; PM1 cells, 20 mM, not fixed before staining
  CXCR4 (MCF): 3.1 MCF
[1]; SupT1, 20 mM, fixed with 2% paraformaldehyde immediately after treatment
  CXCR4 (MCF): 91 MCF
[1]; SupT1 cells, 20 mM, not fixed before staining
  CXCR4 (MCF): 15.0 MCF
[1]; all of the cells, not fixed before staining
  Reduction of cell surface expression of CXCR4: ≥ 50%
[1]; cells fixed and permeabilized after the MAb binding step
  Anti-CXCR4 MAb staining compared to control cells: no significant reduction
[1]; cells fixed immediately after treatment, before MAb staining
  CXCR4 expression on the cell surface: remained unchanged
[2]
  Binding of Jurkat cells to ICAM-Ig after exposure to SDF-1: no binding to ICAM-Ig
[3]
  Infection of PHA blasts by HIV isolate 97.099 (p24 release): completely inhibited
